Experimental data reported in patent US20230373952A1, “LACTAM COMPOUNDS AS Kv1.3 POTASSIUM SHAKER CHANNEL BLOCKERS” (D.E. Shaw Research, LLC, priority 2020, published 2023).

Legend:
[1] = target: T1, hERG channel (Homo sapiens, UniProt Q12809); assay: cell-based
Description: (§1) This assay is used to evaluate the disclosed compounds' inhibition activities against the hERG channel.
(§2) CHO-K1 cells stably expressing hERG were grown in Ham's F-12 Medium with glutamine containing 10% heat-inactivated FBS, 1% penicillin/streptomycin, hygromycin (100 μg/ml) and G418 (100 μg/ml). Cells were grown in culture flasks at 37° C. in a 5% CO2-humidified incubator.
(§3) All compounds were dissolved in DMSO at 30 mM. Compound stock solutions were freshly diluted with external solution to concentrations of 30 nM, 100 nM, 300 nM, 1 μM, 3 μM, 10 μM, 30 μM and 100 μM. The highest content of DMSO (0.3%) was present in 100 μM.
(§4) The voltage protocol (see Table I) was designed to simulate voltage changes during a cardiac action potential with a 300 ms depolarization to +20 mV (analogous to the plateau phase of the cardiac action potential), a repolarization for 300 ms to −50 mV (inducing a tail current) and a final step to the holding potential of −80 mV. The pulse frequency was 0.3 Hz. Control (compound-free) and compound pulse trains for each compound concentration applied contained 70 pulses.
(§5) Whole-cell current recordings and compound application were enabled by means of an automated patch clamp platform Patchliner (Nanion). EPC 10 patch clamp amplifier (HEKA) along with Patchmaster software (HEKA Elektronik Dr. Schulze GmbH) was used for data acquisition. Data were sampled at 10 kHz without filtering. Increasing compound concentrations were applied consecutively to the same cell without washouts in between.
(§6) AUC and PEAK values were obtained with Patchmaster (HEKA Elektronik Dr. Schulze GmbH). To determine IC50 the last single pulse in the pulse train corresponding to a given compound concentration was used. Obtained AUC and PEAK values in the presence of compound were normalized to control values in the absence of compound.

[2] = target: T2, Kv1.3 potassium channel (Homo sapiens, UniProt P22001); assay: Kv1.3 potassium channel blocker activity, automated whole-cell patch clamp (Patchliner); assay type: cell-based; conditions: CHO-K1 cells stably expressing Kv1.3; whole-cell current inhibition, Hill fit; read-out: Kv1.3 IC50
T2 construct: expressed in transfected cells
Description: CHO-K1 cells stably expressing Kv1.3 were grown in DMEM containing 10% heat-inactivated FBS, 1 mM sodium pyruvate, 2 mM L-glutamine and G418 (500 μg/ml).
The currents were evoked by applying 100 ms depolarizing pulses from −90 mV (holding potential) to +40 mV were applied with 0.1 Hz frequency. […] 10-second breaks were used between pulse trains (see Table H below).
Passive leak currents were subtracted online using a P/4 procedure (HEKA Elektronik Dr. Schulze GmbH). […] Total compound incubation time before the next pulse train was not longer than 10 seconds. Peak current inhibition was observed during compound equilibration.

[3] = target: T1, hERG channel; assay: hERG electrophysiology, automated whole-cell patch clamp (Patchliner); conditions: read-out: hERG IC50; CHO-K1 cells stably expressing hERG; whole-cell current inhibition, Hill fit
Description: as §1, §2, §3, §4, §5, §6

T2 sequence (P22001 whole entry): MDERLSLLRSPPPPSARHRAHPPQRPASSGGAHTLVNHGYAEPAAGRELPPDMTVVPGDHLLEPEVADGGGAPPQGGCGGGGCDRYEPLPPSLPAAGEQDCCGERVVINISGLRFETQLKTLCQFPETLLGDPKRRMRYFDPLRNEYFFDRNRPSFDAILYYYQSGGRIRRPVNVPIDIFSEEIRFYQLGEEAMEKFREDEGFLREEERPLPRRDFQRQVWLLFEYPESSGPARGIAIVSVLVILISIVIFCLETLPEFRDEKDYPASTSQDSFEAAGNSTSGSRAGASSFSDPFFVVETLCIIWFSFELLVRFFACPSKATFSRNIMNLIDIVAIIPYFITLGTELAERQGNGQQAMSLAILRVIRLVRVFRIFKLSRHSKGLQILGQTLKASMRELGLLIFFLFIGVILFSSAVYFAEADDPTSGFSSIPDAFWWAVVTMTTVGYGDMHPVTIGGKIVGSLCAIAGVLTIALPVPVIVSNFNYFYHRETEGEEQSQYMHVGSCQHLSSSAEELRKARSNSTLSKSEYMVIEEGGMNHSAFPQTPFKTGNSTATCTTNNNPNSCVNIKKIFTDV
T1 sequence (Q12809 whole entry): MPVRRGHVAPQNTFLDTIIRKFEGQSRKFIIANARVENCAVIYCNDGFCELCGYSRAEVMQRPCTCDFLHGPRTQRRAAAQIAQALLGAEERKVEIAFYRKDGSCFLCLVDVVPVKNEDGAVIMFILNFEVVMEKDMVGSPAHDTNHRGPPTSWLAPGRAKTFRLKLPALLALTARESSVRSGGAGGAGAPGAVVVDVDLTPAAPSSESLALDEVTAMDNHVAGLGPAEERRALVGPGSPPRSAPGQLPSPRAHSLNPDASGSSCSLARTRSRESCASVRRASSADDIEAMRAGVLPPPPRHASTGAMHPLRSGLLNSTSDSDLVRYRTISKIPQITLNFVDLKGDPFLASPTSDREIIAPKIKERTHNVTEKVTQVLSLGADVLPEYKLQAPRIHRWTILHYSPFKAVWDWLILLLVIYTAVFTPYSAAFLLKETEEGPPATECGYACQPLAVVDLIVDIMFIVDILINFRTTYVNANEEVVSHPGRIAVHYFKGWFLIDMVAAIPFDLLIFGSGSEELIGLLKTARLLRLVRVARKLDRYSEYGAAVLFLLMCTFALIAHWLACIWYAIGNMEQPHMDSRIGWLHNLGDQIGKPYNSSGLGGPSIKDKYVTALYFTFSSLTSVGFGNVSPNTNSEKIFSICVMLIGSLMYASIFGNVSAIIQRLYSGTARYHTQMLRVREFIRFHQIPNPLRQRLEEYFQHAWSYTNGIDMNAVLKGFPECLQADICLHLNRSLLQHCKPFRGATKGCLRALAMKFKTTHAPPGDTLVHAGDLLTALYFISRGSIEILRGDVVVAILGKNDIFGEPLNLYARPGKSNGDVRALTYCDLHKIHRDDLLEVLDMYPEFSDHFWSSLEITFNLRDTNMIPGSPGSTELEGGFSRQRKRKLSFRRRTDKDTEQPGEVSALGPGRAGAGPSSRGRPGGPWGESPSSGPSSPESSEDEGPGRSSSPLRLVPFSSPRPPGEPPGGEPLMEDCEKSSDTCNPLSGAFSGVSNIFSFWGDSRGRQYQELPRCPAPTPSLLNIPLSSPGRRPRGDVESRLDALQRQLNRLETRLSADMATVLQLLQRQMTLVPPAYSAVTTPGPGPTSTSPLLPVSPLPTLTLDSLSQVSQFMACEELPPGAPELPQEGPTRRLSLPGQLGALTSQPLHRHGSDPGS

SMILES | IC50 [2] | IC50 [1] | IC50 [3]
O=C1CC(c2c(O)ccc(Cl)c2Cl)CCN1C1CCNC1 (single isomer, unassigned) [Compound 1, 4-(2,3-dichloro-6-hydroxyphenyl)-1-[pyrrolidin-3-yl]piperidin-2-one] | < 0.1 µM | > 30 µM | 
Cn1cc(N2C[C@H](c3c(O)ccc(Cl)c3Cl)CC2=O)cn1 [Compound 56, (4S)-4-(2,3-dichloro-6-hydroxyphenyl)-1-(1-methylpyrazol-4-yl)pyrrolidin-2-one] | < 0.1 µM | > 100 µM | 
O=C1C[C@@H](c2c(O)ccc(Cl)c2Cl)CN1C[C@H]1C[C@@H](O)C1 (single isomer, unassigned; isomer 2) [Compound 32] | < 0.1 µM | > 30 µM | 
C[C@@H](CO)N1C[C@H](c2c(O)ccc(Cl)c2Cl)CC1=O (single isomer, unassigned; isomer 2) [Compound 39] | < 1 µM | > 100 µM | 
O=C1C[C@@H](c2c(O)ccc(Cl)c2Cl)CN1C[C@H]1C[C@H](O)C1 (single isomer, unassigned; isomer 1) [Compound 31] | < 0.1 µM | > 30 µM | 
O=C1C[C@@H](c2cc(Cl)c(Cl)cc2O)CN1C1CNC1 [Compound 22, (4S)-1-(azetidin-3-yl)-4-(4,5-dichloro-2-hydroxyphenyl)pyrrolidin-2-one] | < 1 µM | > 100 µM | 
O=C1CC[C@@H](c2c(O)ccc(Cl)c2Cl)CN1[C@@H]1CCNC1 (single isomer, unassigned) [Compound 5, 5-(2,3-dichloro-6-hydroxyphenyl)-1-[pyrrolidin-3-yl]piperidin-2-one] | < 0.1 µM | > 30 µM | 
O=C1C[C@@H](c2c(O)ccc(Cl)c2Cl)CN1[C@H]1C[C@@H](CO)C1 (single isomer, unassigned; isomer 2) [Compound 26] | < 0.1 µM | > 30 µM | 
O=C1C[C@@H](c2c(O)ccc(Cl)c2Cl)CN1[C@@H]1CCNC1 (single isomer, unassigned) [Compound 14, 4-(2,3-dichloro-6-hydroxyphenyl)-[1,3-bipyrrolidin]-2-one] | < 1 µM | > 30 µM | 
O=C1C[C@@H](c2c(O)ccc(Cl)c2Cl)CN1[C@H]1C[C@H](CO)C1 (single isomer, unassigned; isomer 1) [Compound 25] | < 0.1 µM | > 30 µM | 
O=C1C[C@@H](c2c(O)ccc(Cl)c2Cl)CN1CC1CNC1 [Compound 20, (4S)-1-(azetidin-3-ylmethyl)-4-(2,3-dichloro-6-hydroxyphenyl)pyrrolidin-2-one] | < 0.1 µM | > 100 µM | 
O=C1C[C@@H](c2c(O)ccc(Cl)c2Cl)CN1C1COC1 [Compound 24, (S)-4-(2,3-dichloro-6-hydroxyphenyl)-1-(oxetan-3-yl)pyrrolidin-2-one] | < 0.1 µM | > 30 µM | 
O=C1C[C@@H](c2c(O)ccc(Cl)c2Cl)CN1C1CNC1 [Compound 19, (4S)-1-(azetidin-3-yl)-4-(2,3-dichloro-6-hydroxyphenyl)pyrrolidin-2-one] | < 0.1 µM | > 100 µM | 
O=C1C[C@@H](c2c(O)ccc(Cl)c2Cl)CN1C1CCOCC1 [Compound 17, (4S)-4-(2,3-dichloro-6-hydroxyphenyl)-1-(pyran-4-yl)pyrrolidin-2-one] | < 1 µM | > 30 µM | 
COCCN1C[C@H](c2c(O)ccc(Cl)c2Cl)CC1=O [Compound 36, (4S)-4-(2,3-dichloro-6-hydroxyphenyl)-1-(2-methoxyethyl)pyrrolidin-2-one] | < 0.1 µM | > 30 µM | 
CC(CO)N1C[C@H](c2c(O)ccc(Cl)c2Cl)CC1=O (single isomer, unassigned; isomer 1) [Compound 38] | < 1 µM | > 30 µM | 
CN(C)C(=O)CCN1C[C@H](c2c(O)ccc(Cl)c2Cl)CC1=O [Compound 41, (S)-3-(4-(2,3-dichloro-6-hydroxyphenyl)-2-oxopyrrolidin-1-yl)-N,N-dimethylpropanamide] | < 0.1 µM | > 100 µM | 
O=C1C[C@@H](c2c(O)ccc(Cl)c2Cl)CN1CCO [Compound 29, (4S)-4-(2,3-dichloro-6-hydroxyphenyl)-1-(2-hydroxyethyl)pyrrolidin-2-one] | < 0.1 µM | > 30 µM | 
O=C1C[C@@H](c2c(O)ccc(Cl)c2Cl)CN1CC(CO)CO [Compound 42, (4S)-4-(2,3-dichloro-6-hydroxyphenyl)-1-[3-hydroxy-2-(hydroxymethyl)propyl]pyrrolidin-2-one] | < 0.1 µM | > 30 µM | 
COCCCN1C[C@H](c2c(O)ccc(Cl)c2Cl)CC1=O [Compound 44, (S)-4-(2,3-dichloro-6-hydroxyphenyl)-1-(3-methoxypropyl)pyrrolidin-2-one] | < 0.1 µM | > 10 µM | 
O=C1C[C@@H](c2c(O)ccc(Cl)c2Cl)CN1CCC(F)(F)F [Compound 37, (4S)-4-(2,3-dichloro-6-hydroxyphenyl)-1-(3,3,3-trifluoropropyl)pyrrolidin-2-one] | < 1 µM | > 100 µM | 
Cn1cc(CN2C[C@H](c3c(O)ccc(Cl)c3Cl)CC2=O)cn1 [Compound 23, (4S)-4-(2,3-dichloro-6-hydroxyphenyl)-1-[(1-methylpyrazol-4-yl)methyl]pyrrolidin-2-one] | < 1 µM | > 30 µM | 

Now from value to compound, other results behind:

IC50 [2] | SMILES | IC50 [1] | IC50 [3]
< 0.1 µM | CC1[C@H](c2c(O)ccc(Cl)c2Cl)CC(=O)N1C1CNC1 (stereo in doubt) [Compound 77, (4S,5S)-1-(azetidin-3-yl)-4-(2,3-dichloro-6-hydroxyphenyl)-5-methylpyrrolidin-2-one] | > 30 µM | 
< 0.1 µM | Cn1cc(N2C[C@H](c3c(O)ccc(Cl)c3Cl)NC2=O)cn1 [Compound 100, (4S)-4-(2,3-dichloro-6-hydroxyphenyl)-1-(1-methylpyrazol-4-yl)imidazolidin-2-one] | > 30 µM | 
< 1 µM | O=C1CO[C@H](c2c(O)ccc(Cl)c2Cl)CN1CCO (single isomer, unassigned; isomer 1) [Compound 95, 6-(2,3-dichloro-6-hydroxyphenyl)-4-(2-hydroxyethyl)morpholin-3-one isomer 1] | > 100 µM | 
< 0.1 µM | O=C1N[C@@H](c2c(O)ccc(Cl)c2Cl)CN1CCO [Compound 99, (4S)-4-(2,3-dichloro-6-hydroxyphenyl)-1-(2-hydroxyethyl)imidazolidin-2-one] | > 100 µM | 
< 0.1 µM | C[C@H]1[C@H](c2c(O)ccc(Cl)c2Cl)CC(=O)N1CCCO [Compound 86, (4S,5S)-4-(2,3-dichloro-6-hydroxyphenyl)-1-(3-hydroxypropyl)-5-methylpyrrolidin-2-one] | > 30 µM | 
< 0.1 µM | O=C1N[C@@H](c2c(O)ccc(Cl)c2Cl)CN1CCCO [Compound 104, (4S)-4-(2,3-dichloro-6-hydroxyphenyl)-1-(3-hydroxypropyl)imidazolidin-2-one] | > 100 µM | 
< 0.1 µM | Nc1cc(N2C[C@H](c3c(O)ccc(Cl)c3Cl)CC2=O)ccn1 [Compound 62, (S)-1-(2-aminopyridin-4-yl)-4-(2,3-dichloro-6-hydroxyphenyl)pyrrolidin-2-one] | > 1 µM | 
< 0.1 µM | O=C1CNCCN1CCN1C[C@H](c2c(O)ccc(Cl)c2Cl)CC1=O [Compound 75, 1-[2-[(4S)-4-(2,3-dichloro-6-hydroxyphenyl)-2-oxopyrrolidin-1-yl]ethyl]piperazin-2-one] | > 30 µM | 
< 0.1 µM | C[C@@H]1[C@H](c2c(O)ccc(Cl)c2Cl)CC(=O)N1C1CNC1 [Compound 82, (4S,5R)-1-(azetidin-3-yl)-4-(2,3-dichloro-6-hydroxyphenyl)-5-methylpyrrolidin-2-one] |  | > 30 µM
< 1 µM | CC1[C@@H](c2c(O)ccc(Cl)c2Cl)CC(=O)N1C1CNC1 (stereo in doubt) [Compound 76, (4R,5R)-1-(azetidin-3-yl)-4-(2,3-dichloro-6-hydroxyphenyl)-5-methylpyrrolidin-2-one] | > 100 µM | 
< 1 µM | O=C1C[C@@H](c2c(O)ccc(Cl)c2Cl)CN1C1CC(F)(F)C1 [Compound 74, (S)-4-(2,3-dichloro-6-hydroxyphenyl)-1-(3,3-difluorocyclobutyl)pyrrolidin-2-one] | > 30 µM | 
< 1 µM | N[C@H]1C(=O)N(C2CNC2)C[C@@H]1c1c(O)ccc(Cl)c1Cl [Compound 92, (3R,4S)-3-amino-1-(azetidin-3-yl)-4-(2,3-dichloro-6-hydroxyphenyl)pyrrolidin-2-one] | > 100 µM | 
< 0.1 µM | O=C1C[C@@H](c2c(O)ccc(Cl)c2Cl)CN1[C@H]1C[C@@](O)(CO)C1 (single isomer, unassigned; isomer 3) [Compound 70] | > 100 µM | 
< 1 µM | Cn1cnc(N2C[C@H](c3c(O)ccc(Cl)c3Cl)CC2=O)n1 [Compound 66, (S)-4-(2,3-dichloro-6-hydroxyphenyl)-1-(1-methyl-1H-1,2,4-triazol-3-yl)pyrrolidin-2-one] | > 100 µM | 
< 1 µM | N[C@@H]1C(=O)N(CCO)C[C@@H]1c1c(O)ccc(Cl)c1Cl [Compound 105] | > 100 µM | 
< 0.1 µM | CC1[C@H](c2c(O)ccc(Cl)c2Cl)CC(=O)N1CCO (stereo in doubt) [Compound 81, (4S,5S)-4-(2,3-dichloro-6-hydroxyphenyl)-1-(2-hydroxyethyl)-5-methylpyrrolidin-2-one] | > 30 µM | 
